Data on 34 sequences can be found in patent publication US20060154243A1 (priority 2003, published 2006).

Test [1] has as its system sera SARS-green, SARS-yellow, 1a, 1b, 2, 6, 37, 62 and London. It counts as binding, human.
Test [2] concerns rabbit serum obtained by immunizing with SARS-CoV strain Frankfurt 1. It counts as binding.
For test [3], the system named is control serum LUMC (pooled serum of ten healthy hospital workers). It counts as binding, human.
The subject of test [4] is control serum Blood-bank (commercial negative donor pooled serum). It is filed as binding, human.

For the sequence ATTEELPDEFVVVTA, the “Recognition of the peptide by sera of individuals infected by SARS-CoV, form recognized” value (“Recognition of the peptide” for short) in test [1] is “recognized in linear and in looped form”. Further, in test [2], the “Rabbit serum linear peptides” value is given as 0.1 and the “Rabbit serum looped peptides” value came to 0.5.
As for CICTVVQRCASNKPH, in test [1], the “Recognition of the peptide” value is “recognized in linear and in looped form”. In test [2], the “Rabbit serum linear peptides” value amounted to 0.0 and the “Rabbit serum looped peptides” value is 0.5.
As for CSCICTVVQRCASNK, the “Recognition of the peptide” value in test [1] is “recognized in linear and in looped form”. For the same sequence, in test [2], the “Rabbit serum linear peptides” value is 0.1 and the “Rabbit serum looped peptides” value is given as 0.0.
DFYLCFLAFLLFLVL: in test [3], the “Control serum LUMC linear peptides” value is given as 0.4 and the “Control serum LUMC looped peptides” value was found to be 0.6. Besides, in test [2], the “Rabbit serum linear peptides” value is listed as 0.3 and the “Rabbit serum looped peptides” value is on record as 0.4. Further, in test [4], the “Control Serum Blood-Bank Looped peptides” value worked out at 0.6 and the “Control serum Blood-bank linear peptides” value worked out at 0.7.
On to DPNQTNVVPPALHLV, for which, in test [1], the “Recognition of the peptide” value was “recognized in linear and in looped form”. In test [2], the “Rabbit serum linear peptides” value came to 2.3 and the “Rabbit serum looped peptides” value is recorded as 0.2.
With ELTLIDFYLCFLAFL, in test [3], the “Control serum LUMC linear peptides” value was found to be 0.5 and the “Control serum LUMC looped peptides” value is on record as 0.7. In test [2], the “Rabbit serum linear peptides” value is 0.4 and the “Rabbit serum looped peptides” value amounted to 0.6. Besides, in test [4], the “Control Serum Blood-Bank Looped peptides” value amounted to 0.6 and the “Control serum Blood-bank linear peptides” value was 0.7.
Regarding FLAFLLFLVLIMLII, in test [3], the “Control serum LUMC linear peptides” value is 0.5 and the “Control serum LUMC looped peptides” value is listed as 0.4. In addition, in test [2], the “Rabbit serum linear peptides” value worked out at 0.3 and the “Rabbit serum looped peptides” value turned out to be 0.7. For the same sequence, in test [4], the “Control Serum Blood-Bank Looped peptides” value is 0.7 and the “Control serum Blood-bank linear peptides” value stood at 0.7.
In the case of FLLFLVLIMLIIFWF, in test [3], the “Control serum LUMC linear peptides” value is given as 0.3 and the “Control serum LUMC looped peptides” value was determined as 0.5. Further, in test [2], the “Rabbit serum linear peptides” value is given as 0.5 and the “Rabbit serum looped peptides” value amounted to 0.7. In test [4], the “Control Serum Blood-Bank Looped peptides” value was found to be 0.6 and the “Control serum Blood-bank linear peptides” value is 0.9.
Consider FLVLIMLIIFWFSLE, for which, in test [3], the “Control serum LUMC linear peptides” value is on record as 0.7 and the “Control serum LUMC looped peptides” value was 0.7. Moreover, in test [2], the “Rabbit serum linear peptides” value amounted to 0.4 and the “Rabbit serum looped peptides” value is 0.6. In addition, in test [4], the “Control Serum Blood-Bank Looped peptides” value was 0.8 and the “Control serum Blood-bank linear peptides” value worked out at 0.9.
As to FYLCFLAFLLFLVLI, in test [3], the “Control serum LUMC linear peptides” value is reported as 0.4 and the “Control serum LUMC looped peptides” value is recorded as 0.6. In test [2], the “Rabbit serum linear peptides” value came to 0.3 and the “Rabbit serum looped peptides” value stood at 0.6. In test [4], the “Control Serum Blood-Bank Looped peptides” value turned out to be 0.7 and the “Control serum Blood-bank linear peptides” value is listed as 0.8.
In the case of IDFYLCFLAFLLFLV, in test [3], the “Control serum LUMC linear peptides” value was 0.5 and the “Control serum LUMC looped peptides” value worked out at 0.7. In test [2], the “Rabbit serum linear peptides” value was 0.4 and the “Rabbit serum looped peptides” value is given as 0.5. Besides, in test [4], the “Control Serum Blood-Bank Looped peptides” value is recorded as 0.6 and the “Control serum Blood-bank linear peptides” value is recorded as 0.9.
In the case of ITRMEDAMGQGQNSA, the “Recognition of the peptide” value in test [1] is “only recognized in looped form”. For the same sequence, in test [2], the “Rabbit serum linear peptides” value was 0.1 and the “Rabbit serum looped peptides” value is recorded as 0.4.
Take KLATTEELPDEFVVV: the “Recognition of the peptide” value in test [1] was “recognized in linear and in looped form”. Also, in test [2], the “Rabbit serum linear peptides” value stood at 0.2 and the “Rabbit serum looped peptides” value stood at 0.5.
In the case of LAFLLFLVLIMLIIF, in test [3], the “Control serum LUMC linear peptides” value is 0.3 and the “Control serum LUMC looped peptides” value is recorded as 0.4. In addition, in test [2], the “Rabbit serum linear peptides” value amounted to 0.4 and the “Rabbit serum looped peptides” value is given as 1.1. Also, in test [4], the “Control Serum Blood-Bank Looped peptides” value worked out at 0.8 and the “Control serum Blood-bank linear peptides” value turned out to be 0.6.
Take LATTEELPDEFVVVT: the “Recognition of the peptide” value in test [1] is “recognized in linear and in looped form”. For the same sequence, in test [2], the “Rabbit serum linear peptides” value is recorded as 0.1 and the “Rabbit serum looped peptides” value was found to be 0.6.
In the case of LCFLAFLLFLVLIML, in test [3], the “Control serum LUMC linear peptides” value amounted to 0.4 and the “Control serum LUMC looped peptides” value is 0.4. For the same sequence, in test [2], the “Rabbit serum linear peptides” value worked out at 0.2 and the “Rabbit serum looped peptides” value is 0.3. Further, in test [4], the “Control Serum Blood-Bank Looped peptides” value worked out at 0.7 and the “Control serum Blood-bank linear peptides” value worked out at 0.7.
In the case of LFLVLIMLIIFWFSL, in test [3], the “Control serum LUMC linear peptides” value is listed as 0.4 and the “Control serum LUMC looped peptides” value came out at 0.4. In test [2], the “Rabbit serum linear peptides” value amounted to 0.4 and the “Rabbit serum looped peptides” value turned out to be 0.5. Besides, in test [4], the “Control Serum Blood-Bank Looped peptides” value was determined as 0.8 and the “Control serum Blood-bank linear peptides” value came out at 0.8.
With LIDFYLCFLAFLLFL, in test [3], the “Control serum LUMC linear peptides” value was 0.4 and the “Control serum LUMC looped peptides” value worked out at 0.7. Moreover, in test [2], the “Rabbit serum linear peptides” value came out at 0.3 and the “Rabbit serum looped peptides” value worked out at 0.3. Also, in test [4], the “Control Serum Blood-Bank Looped peptides” value was 0.5 and the “Control serum Blood-bank linear peptides” value is 0.7.
With LLFLVLIMLIIFWFS, in test [3], the “Control serum LUMC linear peptides” value was 0.4 and the “Control serum LUMC looped peptides” value was found to be 0.4. For the same sequence, in test [2], the “Rabbit serum linear peptides” value was found to be 0.5 and the “Rabbit serum looped peptides” value is reported as 0.6. Moreover, in test [4], the “Control Serum Blood-Bank Looped peptides” value came out at 0.9 and the “Control serum Blood-bank linear peptides” value is 0.9.
For the sequence LTITRMEDAMGQGQN, the “Recognition of the peptide” value in test [1] is “only recognized in looped form”. In addition, in test [2], the “Rabbit serum linear peptides” value came out at 0.3 and the “Rabbit serum looped peptides” value was 0.3.
In the case of LTLIDFYLCFLAFLL, in test [3], the “Control serum LUMC linear peptides” value is 0.8 and the “Control serum LUMC looped peptides” value turned out to be 0.7. Moreover, in test [2], the “Rabbit serum linear peptides” value is given as 0.3 and the “Rabbit serum looped peptides” value stood at 0.5. In test [4], the “Control Serum Blood-Bank Looped peptides” value is 0.5 and the “Control serum Blood-bank linear peptides” value is 0.9.
As for LVLIMLIIFWFSLEI, in test [3], the “Control serum LUMC linear peptides” value came to 0.8 and the “Control serum LUMC looped peptides” value is 0.3. In addition, in test [2], the “Rabbit serum linear peptides” value is on record as 0.4 and the “Rabbit serum looped peptides” value is 0.6. Also, in test [4], the “Control Serum Blood-Bank Looped peptides” value came out at 0.7 and the “Control serum Blood-bank linear peptides” value worked out at 0.9.
Consider MEDAMGQGQNSADPK, for which the “Recognition of the peptide” value in test [1] was “only recognized in looped form”. Moreover, in test [2], the “Rabbit serum linear peptides” value was 0.1 and the “Rabbit serum looped peptides” value worked out at 0.4.
As to MNELTLIDFYLCFLA, in test [3], the “Control serum LUMC linear peptides” value came to 1.1 and the “Control serum LUMC looped peptides” value was 0.9. In addition, in test [2], the “Rabbit serum linear peptides” value was 0.4 and the “Rabbit serum looped peptides” value is reported as 0.5. In test [4], the “Control Serum Blood-Bank Looped peptides” value turned out to be 0.5 and the “Control serum Blood-bank linear peptides” value is on record as 0.7.
As for MTKLATTEELPDEFV, in test [1], the “Recognition of the peptide” value is “recognized in linear and in looped form”. In test [2], the “Rabbit serum linear peptides” value worked out at 0.1 and the “Rabbit serum looped peptides” value is recorded as 0.6.
Turning to NELTLIDFYLCFLAF, in test [3], the “Control serum LUMC linear peptides” value was found to be 0.6 and the “Control serum LUMC looped peptides” value is 0.9. In test [2], the “Rabbit serum linear peptides” value was 0.4 and the “Rabbit serum looped peptides” value turned out to be 0.8. For the same sequence, in test [4], the “Control Serum Blood-Bank Looped peptides” value turned out to be 0.5 and the “Control serum Blood-bank linear peptides” value came to 0.6.
On to NQTNVVPPALHLVDP, for which, in test [1], the “Recognition of the peptide” value is “recognized in linear and in looped form”. In addition, in test [2], the “Rabbit serum linear peptides” value was found to be 0.1 and the “Rabbit serum looped peptides” value was determined as 0.4.
PALHLVDPQIQLTIT: the “Recognition of the peptide” value in test [1] was “recognized in linear and in looped form”. In addition, in test [2], the “Rabbit serum linear peptides” value worked out at 1.3 and the “Rabbit serum looped peptides” value is reported as 0.4.
For the sequence PNQTNVVPPALHLVD, in test [1], the “Recognition of the peptide” value is “recognized in linear and in looped form”. Moreover, in test [2], the “Rabbit serum linear peptides” value worked out at 0.4 and the “Rabbit serum looped peptides” value worked out at 0.2.
As to PPALHLVDPQIQLTI, the “Recognition of the peptide” value in test [1] was “recognized in linear and in looped form”. In test [2], the “Rabbit serum linear peptides” value is recorded as 0.2 and the “Rabbit serum looped peptides” value stood at 0.3.
Regarding QMTKLATTEELPDEF, the “Recognition of the peptide” value in test [1] is “recognized in linear and in looped form”. For the same sequence, in test [2], the “Rabbit serum linear peptides” value is given as 0.1 and the “Rabbit serum looped peptides” value came to 0.6.
For TLIDFYLCFLAFLLF, in test [3], the “Control serum LUMC linear peptides” value is 0.8 and the “Control serum LUMC looped peptides” value is given as 0.8. For the same sequence, in test [2], the “Rabbit serum linear peptides” value is 0.4 and the “Rabbit serum looped peptides” value was found to be 0.4. Moreover, in test [4], the “Control Serum Blood-Bank Looped peptides” value was 0.4 and the “Control serum Blood-bank linear peptides” value came to 0.7.
For VLIMLIIFWFSLEIQ, in test [3], the “Control serum LUMC linear peptides” value is on record as 0.7 and the “Control serum LUMC looped peptides” value is 0.4. In addition, in test [2], the “Rabbit serum linear peptides” value came out at 0.4 and the “Rabbit serum looped peptides” value was determined as 0.2. Moreover, in test [4], the “Control Serum Blood-Bank Looped peptides” value stood at 0.7 and the “Control serum Blood-bank linear peptides” value amounted to 0.8.
Take YLCFLAFLLFLVLIM: in test [3], the “Control serum LUMC linear peptides” value is recorded as 0.4 and the “Control serum LUMC looped peptides” value is reported as 0.8. Further, in test [2], the “Rabbit serum linear peptides” value was found to be 0.3 and the “Rabbit serum looped peptides” value is 0.3. In test [4], the “Control Serum Blood-Bank Looped peptides” value is 0.6 and the “Control serum Blood-bank linear peptides” value worked out at 0.8.
